Inconclusive results and toxic doses are left out. Rule for the calls: active = survival T/C of 150% or more; inactive = T/C below 125% in these data.
System: P388 leukemia ip, CD2F1 mice, survival T/C
Assay: NCI In Vivo Anticancer Drug Screen. Data for tumor model P388 Leukemia (intraperitoneal) in CD2F1 (CDF1) mice
Settings: endpoint: median survival time, higher = longer survival
How it was run: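 Mice carrying the transplanted tumor received test compound or vehicle. Survival was recorded in each group, and the value is the treated-group measurement divided by that of the vehicle-treated control group.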

[1] = dose: 100.0 mg/kg/injection, schedule: Q01DX001 (ip), vehicle: saline
[2] = dose: 200.0 mg/kg/injection, schedule: Q01DX001 (ip), vehicle: saline
[3] = dose: 400.0 mg/kg/injection, schedule: Q01DX001 (ip), vehicle: saline
[4] = dose: 60.0 mg/kg/injection, schedule: Q01DX005 (ip), vehicle: saline with Tween-80
[5] = dose: 120.0 mg/kg/injection, schedule: Q01DX005 (ip), vehicle: saline with Tween-80
[6] = dose: 240.0 mg/kg/injection, schedule: Q01DX005 (ip), vehicle: saline with Tween-80

Measured: T/C

c1ccc(CCNc2ncnc3nc[nH]c23)cc1
inactive: dose: 12.5 mg/kg/injection, schedule: Q01DX009 (ip), vehicle: other 102 % of control | dose: 25.0 mg/kg/injection, schedule: Q01DX009 (ip), vehicle: other 101 % of control | dose: 50.0 mg/kg/injection, schedule: Q01DX009 (ip), vehicle: other 100 % of control | dose: 100.0 mg/kg/injection, schedule: Q01DX009 (ip), vehicle: other 101 % of control | dose: 200.0 mg/kg/injection, schedule: Q01DX009 (ip), vehicle: other 102 % of control

NC1=C(c2cccc(Cl)c2)C(=O)CC12C=CC(=O)C=C2
inactive: dose: 50.0 mg/kg/injection, schedule: Q01DX009 (ip), vehicle: Klucel (hydroxypropylcellulose) (HPC) 100 % of control | dose: 100.0 mg/kg/injection, schedule: Q01DX009 (ip), vehicle: Klucel (hydroxypropylcellulose) (HPC) 104 % of control | dose: 200.0 mg/kg/injection, schedule: Q01DX009 (ip), vehicle: Klucel (hydroxypropylcellulose) (HPC) 102 % of control

CNC(=S)N/N=C(\C)c1ccco1
inactive: [1] 104 % of control | [2] 97 % of control | [3] 97 % of control

NC(=O)CCC(NC(=O)OCC1c2ccccc2-c2ccccc21)C(=O)O (centres undefined)
inactive: dose: 50.0 mg/kg/injection, schedule: Q01DX005 (ip), vehicle: Klucel (hydroxypropylcellulose) (HPC) 104 % of control | dose: 100.0 mg/kg/injection, schedule: Q01DX005 (ip), vehicle: Klucel (hydroxypropylcellulose) (HPC) 103 % of control | dose: 200.0 mg/kg/injection, schedule: Q01DX005 (ip), vehicle: Klucel (hydroxypropylcellulose) (HPC) 104 % of control

CCN(CC)CC(C)(C)C(=O)/C=C/c1ccc(C)cc1
inactive: dose: 60.0 mg/kg/injection, schedule: Q01DX005 (ip), vehicle: saline 103 % of control | dose: 120.0 mg/kg/injection, schedule: Q01DX005 (ip), vehicle: saline 103 % of control | dose: 240.0 mg/kg/injection, schedule: Q01DX005 (ip), vehicle: saline 110 % of control

O=c1[nH]c2cc(Cl)ccc2nc1/C=C(\O)c1cccc2ccccc12
inactive: [4] 89 % of control | [5] 88 % of control | [6] 90 % of control

COc1cc(C[C@H]2c3cc(OC)c(OC)cc3CCN2C)c(Oc2cc3c(cc2OC)-c2c(OC)c(OC)cc4c2[C@H](C3)N(C)CC4)cc1OC
inactive: dose: 2.5 mg/kg/injection, schedule: Q03HX016 (ip), vehicle: saline 90 % of control | dose: 2.5 mg/kg/injection, schedule: Q03HX024 (ip), vehicle: saline 95 % of control | dose: 5.0 mg/kg/injection, schedule: Q03HX008 (ip), vehicle: saline 91 % of control | dose: 5.0 mg/kg/injection, schedule: Q03HX016 (ip), vehicle: saline 100 % of control | dose: 5.0 mg/kg/injection, schedule: Q03HX024 (ip), vehicle: saline 95 % of control | dose: 6.25 mg/kg/injection, schedule: Q01DX009 (ip), vehicle: saline 90 % of control | dose: 10.0 mg/kg/injection, schedule: Q01DX009 (ip), vehicle: distilled water + Tween-80 96 % of control | dose: 10.0 mg/kg/injection, schedule: Q03HX008 (ip), vehicle: saline 95 % of control | dose: 10.0 mg/kg/injection, schedule: Q03HX016 (ip), vehicle: saline 100 % of control | dose: 10.0 mg/kg/injection, schedule: Q03HX024 (ip), vehicle: saline 95 % of control | dose: 12.5 mg/kg/injection, schedule: Q01DX009 (ip), vehicle: saline 104 % of control | dose: 12.5 mg/kg/injection, schedule: Q01DX009 (oral), vehicle: saline 100 % of control | dose: 20.0 mg/kg/injection, schedule: Q01DX009 (ip), vehicle: distilled water + Tween-80 92 % of control | dose: 20.0 mg/kg/injection, schedule: Q03HX008 (ip), vehicle: saline 100 % of control | dose: 20.0 mg/kg/injection, schedule: Q03HX016 (ip), vehicle: saline 100 % of control | dose: 20.0 mg/kg/injection, schedule: Q03HX024 (ip), vehicle: saline 100 % of control | dose: 25.0 mg/kg/injection, schedule: Q01DX009 (ip), vehicle: saline 109 % of control | dose: 25.0 mg/kg/injection, schedule: Q01DX009 (oral), vehicle: saline 100 % of control | dose: 25.0 mg/kg/injection, schedule: Q04DX003 (ip), vehicle: saline 100 % of control | dose: 25.0 mg/kg/injection, schedule: Q08DX002 (ip), vehicle: saline 100 % of control | dose: 40.0 mg/kg/injection, schedule: Q01DX009 (ip), vehicle: distilled water + Tween-80 92 % of control | dose: 40.0 mg/kg/injection, schedule: Q03HX008 (ip), vehicle: saline 100 % of control | dose: 40.0 mg/kg/injection, schedule: Q03HX016 (ip), vehicle: saline 109 % of control | dose: 40.0 mg/kg/injection, schedule: Q03HX024 (ip), vehicle: saline 95 % of control | dose: 50.0 mg/kg/injection, schedule: Q01DX001 (ip), vehicle: saline 91 % of control | dose: 50.0 mg/kg/injection, schedule: Q01DX009 (ip), vehicle: saline 104 % of control | dose: 50.0 mg/kg/injection, schedule: Q01DX009 (oral), vehicle: saline 100 % of control | dose: 50.0 mg/kg/injection, schedule: Q04DX003 (ip), vehicle: saline 100 % of control | dose: 50.0 mg/kg/injection, schedule: Q08DX002 (ip), vehicle: saline 100 % of control | dose: 80.0 mg/kg/injection, schedule: Q01DX009 (ip), vehicle: distilled water + Tween-80 101 % of control | dose: 80.0 mg/kg/injection, schedule: Q03HX008 (ip), vehicle: saline 100 % of control | [1] 91 % of control | dose: 100.0 mg/kg/injection, schedule: Q01DX001 (oral), vehicle: saline 104 % of control | dose: 100.0 mg/kg/injection, schedule: Q01DX009 (ip), vehicle: saline 100 % of control | dose: 100.0 mg/kg/injection, schedule: Q01DX009 (oral), vehicle: saline 100 % of control | dose: 100.0 mg/kg/injection, schedule: Q04DX003 (ip), vehicle: saline 109 % of control | dose: 100.0 mg/kg/injection, schedule: Q08DX002 (ip), vehicle: saline 100 % of control | [2] 91 % of control | dose: 200.0 mg/kg/injection, schedule: Q01DX001 (oral), vehicle: saline 95 % of control | dose: 200.0 mg/kg/injection, schedule: Q01DX009 (oral), vehicle: saline 95 % of control | dose: 200.0 mg/kg/injection, schedule: Q04DX003 (ip), vehicle: saline 109 % of control | dose: 200.0 mg/kg/injection, schedule: Q08DX002 (ip), vehicle: saline 100 % of control | [3] 91 % of control | dose: 400.0 mg/kg/injection, schedule: Q01DX001 (oral), vehicle: saline 95 % of control | dose: 400.0 mg/kg/injection, schedule: Q08DX002 (ip), vehicle: saline 100 % of control | dose: 800.0 mg/kg/injection, schedule: Q01DX001 (ip), vehicle: saline 100 % of control | dose: 800.0 mg/kg/injection, schedule: Q01DX001 (oral), vehicle: saline 95 % of control | dose: 1600.0 mg/kg/injection, schedule: Q01DX001 (oral), vehicle: saline 104 % of control

CCOC(=Nc1ccc(OCC)cc1)SC(c1ccccc1)(c1ccccc1)c1ccccc1
inactive: dose: 50.0 mg/kg/injection, schedule: Q01DX005 (ip), vehicle: saline with Tween-80 104 % of control | dose: 100.0 mg/kg/injection, schedule: Q01DX005 (ip), vehicle: saline with Tween-80 98 % of control | dose: 200.0 mg/kg/injection, schedule: Q01DX005 (ip), vehicle: saline with Tween-80 91 % of control

CN(C)c1ccc2c(c1)c1cc(N(C)C)ccc1n2Cc1ccccc1
inactive: [4] 102 % of control | [5] 94 % of control | [6] 98 % of control

— PubChem BioAssay AID330 (DTP/NCI, 2004)
